# Results from US8673857B2, “Long term potentiation with cyclic-GluR6 analogs” (Brown University, priority 2009, dated 2014).
# “Also recorded” adds a separate entry of the source. Starred links: 1 amine or outer side, 2 acyl side, 3 side chain; linkers in the order of their positions; H or OH if unused. Positions of bridges follow the written chain, without caps; N, C: chain ends. Residues, ends and D or L forms follow the SMILES beside them. Chains are numbered I, II in the order given. No end group written: not given here. X1 = O=C(CCN[*:2])[*:1]; βAla = NCCC(=O)O
# Assays:
# [1] = system: NMDA receptor; assay: Whole cell patch recording of isolated NMDA EPSC, CA1 pyramidal neuron in hippocampal slices; details: perfusion in presence of NBQX 5 μM and picrotoxin 50 μM, clamped at +40 mV, CN2097 2 μM, APV 50 μM
# Description: APV is a selective NMDA receptor antagonist.
# (§1) CN 2097 is effective in synaptic plasticity and is able to lower the threshold for LTP induction, as shown FIG. 2. […] Without being bound by any particular theory, it is believed that CN 2097 acts through its ability to specifically interfere with NR2B activity and expression to change the sliding threshold for synaptic plasticity, altering the ratio of NR2A:NR2B. Similarly, antagonism of NR2B has been reported to lower the threshold for synaptic plasticity, such that LTP can be induced in response to a normally impotent stimulation with NMDA agonist. […] The cell voltage was clamped at +40 mV and synaptic responses were recorded.
# [2] = system: Schaffer Collateral-CA1 synapse; assay: Sub-threshold LTP induction at Schaffer Collateral-CA1 synapse (fEPSP); set-up: species or system adult Wistar rat; details: for LTP induction with sub-threshold protocol: CN2097 2 μM, low intensity 1 second 100 Hz HFS that normally fails to induce LTP
# Description: It would normally induce no increase in baseline fEPSP responses (lower line).
# as §1
# [3] = system: retina and hippocampus; assay: Excitotoxic studies with lethal doses of NMDA
# Description: (§2) Using Fmoc-based protocols, a series of peptide ligands were synthesized that complement the PDZ-binding domain of PSD-95 with the criteria of being membrane permeable, resistant to protease activity and biologically active. The peptide KNYKKTEV, which codes for the CRIPT PDZ-3 binding motif, was cyclized between the valine (V) and threonine (T) residues via beta-alanine linkage and either myristylated (CN2180) or linked to a poly-arginine tail (CN2097; FIG. 1) to enhance its diffusion and uptake capacity by neurons in intact tissues. Binding specificity of CN2180 was tested against a PDZ-domain array consisting of 96 distinct His-tagged PDZ domains purified and spotted on a gridded nylon membrane. […] CN 2097 acts as competitive ligand for this binding site and as such is able to disrupt the normal binding of NR2B receptors to the PSD. Also, it is believed that CN2097 disrupts NR2B downstream signaling by displacing signaling effectors attached directly or indirectly to the NR2B/PSD-95 signaling complex including CaMKII. […] Without being bound by any particular theory, this effect is believed due to the disruption of apoptotic and necrotic cell signaling pathways that propagate the cell death signal.
# [4] = Human plasma half-life; assay type: in vitro ADME
# [5] = system: NR2B NMDAR subunit; assay: Electrophysiological and biochemical preliminary studies
# Description: as §2
# [6] = system: retinal ganglion cells; assay: NMDA-induced ganglion cell death in the rat retina, intravitreal injection; assay type: in vivo
# Protocol: Rat eyes were given an intravitreal injection containing 20 nmol of NMDA with 3 nmol CN2097 being co-administered or injected following NMDA insult at 1, 2 or 6 hrs. Retinal ganglion cell survival was assessed by counting fluorogold-labeled cells In an defined area (between 2 and 3 mm) from the center of the optic nerve head of each retina and compared with untreated (control) retinas.
# Tests included 20 nmol NMDA vs 1.2 nmol CN2097/20 nmol NMDA.
# [7] = system: mTOR, S6 and AKT expression pathways; assay: Western blots of in vivo injected retinas, SH-SY5Y neuroblastomas and primary cerebellar granule neurons; assay type: cell-based
# Description: Additionally, upregulation of CaMKII, an NMDAR-PSD-95 associated protein, is believed to be associated with synaptic plasticity. Biochemical analyses using western blots of in vivo injected retinas, cultured SH-SY5Y neuroblastomas and primary cultured mouse cerebellar granule neurons (CGN) was undertaken. Left and right eyes were given in vivo injections of phosphate buffered saline (PBS), NMDA, NMDA with CN 2097 and NMDA with CN5135, the retinas were then removed and lysed. CGNs were stimulated by a paradigm designed to mimic synaptic stimulation ([…] in ACSF) and SH-SY5Y cells were activated by nerve growth factor (NGF 50 ng/ml). […] Additionally CN2097 increased the expression CREB, which is also neuroprotective. Also observed were increases in levels of PSD-95.
# CN2097 (2 μM) was tested after injection into eyes/retinas (lower left panel) applied to cell cultures for 5-30 minutes concurrently with either a synaptic stimulation and nerve growth factor (NGF) 50 ng/ml. CN2097 saw increased ERK, AKT1/2, p-S6K, p-S6, p-ERK, p-p38, p-CREB and PSD-95. Additionally, CN2097 (2 μM) inhibited p-JNK. CN2097S (szeto sequence used instead of Pol-Arginine) and CN5135 (2, 10 and […]), a structural analogue of CN2097 with disruptive alanine substitutions at the 0 and −2 ring positions (binding domain) were used a negative controls whilst tat-NR2B9c (TAT, 2 μM) was used as a positive control.
# [8] = system: WT mouse hippocampal slice; assay: LTP in WT mouse hippocampal slice, one sub-threshold HFS (fEPSP slope)
# Protocol: FIG. 6 presents data from a WT mouse adult hippocampal slice. An arrow indicates the time point at which one sub-threshold High Frequency Stimuli (HFS, 100 pulse in 1 second every 10 ms, 100 Hz) was applied. The white box indicates the treatment with CN2097 2 μM.
# (§3) Ube3a deficient (“AS”) mice were developed previously (Jiang, Y. H. et al. Mutation of the Angelman ubiquitin ligase in mice causes increased cytoplasmic p53 and deficits of contextual learning and long-term potentiation. Neuron 21, 799-811 (1998)), were obtained through the Jackson Laboratory. Mice were bred on a 129S7 background. To obtain heterozygous mice lacking the Ube3a gene maternally (m−/p+), we crossed a heterozygous female mouse (m−/p+) with a wild-type male mouse (m+/p+). Wild type (WT) littermates (m+/p+) were used as controls.
# [9] = system: AS mouse (Ube3am−/p+) hippocampal slices; assay: LTP in AS mouse (Ube3am-/p+) hippocampal slice, three trains of HFS; details: CN2097 2 μM superfused 20-50 minutes, three trains of HFS 10 seconds apart at 40 minutes
# Protocol: Then CN2097 2 μM was superfused from 20-50 minutes. The arrow at 40 minutes indicates three trains of High Frequency Stimuli 10 seconds apart. The HFS is 100 pulses in 1 second with an interpulse interval of 10 ms, i.e. 100 Hz. […] In AS mice this stimulation is normally unable to induce LTP (FIG. 8.). At 90-100 minutes the averaged response was 159.8+/−1.1%, n=7.
# as §3
# [10] = system: PI3K and AKT signaling; assay: ACPD (mGluR1 agonist) signaling with CN2097 added; assay type: cell-based; details: CN2097 added to ACPD
# Protocol: ACPD, an agonist of mGluR1, when CN2097 is added leads to an enhancement of PI3K and AKT signaling.
# [11] = Uptake into the brain post i.v.; assay type: in vivo; details: hippocampus, cerebellum, periventricular nucleus of the hypothalmus, deep cerebellar nuclei, sub-cortex, retina
# Description: In addition uptake into the deep cerebellar nuclei, in the sub-cortex and the retina are noted.
# [12] = biological target: T1, PDZ3 domain of PSD-95 (Homo sapiens, UniProt P78352); assay: PDZ-domain array of 96 His-tagged PDZ domains; assay type: binding
# T1 construct: His
# Description: as §2
# [13] = system: PDZ domains of other MAGUKS, MUPP1, S-SCAM, Shank and spinophilin; assay: PDZ-domain array of 96 His-tagged PDZ domains; assay type: binding
# Description: as §2
# [14] = biological target: T2, PDZ1-PDZ2 domains of PSD-95 (Homo sapiens, UniProt P78352); assay: PDZ-domain array of 96 His-tagged PDZ domains; assay type: binding
# T2 construct: His
# Description: as §2
# T1 sequence (P78352 313-393 limits assumed): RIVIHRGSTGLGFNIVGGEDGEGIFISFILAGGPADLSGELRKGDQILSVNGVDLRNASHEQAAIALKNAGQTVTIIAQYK
# T2 sequence (P78352 65-246 limits assumed): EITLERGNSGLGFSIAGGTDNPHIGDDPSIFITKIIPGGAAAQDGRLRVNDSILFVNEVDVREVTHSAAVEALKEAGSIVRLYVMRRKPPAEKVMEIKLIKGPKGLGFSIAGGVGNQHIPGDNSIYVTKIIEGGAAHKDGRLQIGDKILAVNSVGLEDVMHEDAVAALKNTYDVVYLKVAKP
molecule,measurement,setting,value
"N[C@@H](CCCP(=O)(O)O)C(=O)O [APV, reference compound]",effect on pharmacologically isolated NMDA EPSC,[1],abolished the EPSC
CC(C)[C@H](NC(=O)[C@@H]1CCC(=O)NCCC(=O)NCCCC[C@H](NC(=O)[C@H](CCCCN)NC(=O)[C@H](Cc2ccc(O)cc2)NC(=O)[C@H](CC(N)=O)NC(=O)[C@H](CCCCN)NC(=O)[C@@H](N)CSSC[C@H](N)C(=O)N[C@@H](CCCNC(=N)N)C(=O)N[C@@H](CCCNC(=N)N)C(=O)N[C@@H](CCCNC(=N)N)C(=O)N[C@@H](CCCNC(=N)N)C(=O)N[C@@H](CCCNC(=N)N)C(=O)N[C@@H](CCCNC(=N)N)C(=O)N[C@@H](CCCNC(=N)N)C(N)=O)C(=O)N[C@@H]([C@@H](C)O)C(=O)N1)C(=O)O [CN2097] (I: H-CKNYKKTEV-OH / II: H-CRRRRRRR-NH2; disulfide I:1-II:1; linker I:6-I:8 via X1),duration of induced LTP,"[2]; 2 μM CN 2097, 1 second 100 Hz HFS",over 60 minutes
same,LTP induction with sub-threshold protocol,[2],results in LTP induction
same,LTP induction with sub-threshold protocol,[2]; listed as CN 2097,induced a significant LTP
same,neuroprotection against lethal doses of NMDA,[3],neuroprotective
same,half-life,[4],~48 min
same,specificity toward the NR2B NMDAR subunit,[5],demonstrates specificity
same,NMDA-induced TUNEL-labeling in the retina,[6]; 20 nmol NMDA vs 1.2 nmol CN2097/20 nmol NMDA,blocked
same,ganglion cell death with post-treatment,"[6]; 20 nmol NMDA, 3 nmol CN2097 co-administered or injected 1, 2 or 6 hrs after NMDA",neuroprotective effects
same,NMDA-induced poly(ADP-ribosyl)ation-immunoreactivity (PAR-IR),"[6]; matched paired retinas, 20 nmol NMDA",dose dependent attenuation
same,"NMDA-induced ganglion cell loss, fluorogold retrograde labeling",[6]; viewed 14 days post insult,provided protection
same,NMDA-induced loss of plasma membrane selectivity (LPMS; necrosis),[6]; vs time matched NMDA-treated retina,blocked
same,expression of CREB,[7],increased
same,levels of PSD-95,[7],increases
same,p-JNK,[7]; 2 μM,inhibiting; also recorded: inhibited
same,"total protein expression and phosphorylation state of pro-survival signaling proteins (CamKII, ERK, AKT1/2, p-S6K, p-S6, p-ERK, p-p38, p-CREB, PSD-95)","[7]; 2 μM, 5-30 minutes, with synaptic stimulation or NGF 50 ng/ml, or injected retinas",increases in both total protein expression and phosphorylation state; also recorded: increased
same,"LTP, % of baseline fEPSP slope","[8]; 2 μM treatment combined with one sub-threshold HFS (HFS1, 100 Hz)",187.2+/−1.034%
same,effect of compound alone upon baseline responses,"[8]; CN2097 2 μM, between 20 and 40 minutes, before HFS",no significant observed effect
same,effect on pharmacologically isolated NMDA EPSC,[1],lack of effect
same,effect on pharmacologically isolated NMDA EPSC,[1]; listed as CN 2097,does not act as an antagonist
same,"LTP, averaged response at 90-100 minutes",[9],159.8+/−1.1%
same,PI3K and AKT signaling with ACPD,[10],enhancement
same,uptake into the brain,[11],uptake into the brain has also been noted
"CN2180: peptide KNYKKTEV cyclized between valine and threonine via beta-alanine linkage, myristylated (bridge (positions not given here) via βAla; also: cyclized between valine and threonine via beta-alanine linkage, myristylated, site not given here)",binding to PDZ3 domain of PSD-95,[12],moderate binding
same,binding to PDZ domains of other MAGUKS and other PDZ-containing proteins,[13],did not bind
same,binding specificity to PDZ1-PDZ2 domains of PSD-95,[14],high specificity
